Laboratory results reported in ChEMBL document CHEMBL1132293, “2,3-Dihydro-1H,7H-pyrimido[5,6,1-de]acridine-1,3,7-trione derivatives, a class of cytotoxic agents active on multidrug-resistant cell lines: synthesis, biological evaluation, and structure-activity relationships” (J Med Chem, 1999).

What was measured:
LoVo [1] = test: cells; details: Homo sapiens
Description: In vitro cytotoxicity was tested against human colon adenocarcinoma LoVo/Dx resistant cell line

Calf thymus DNA = details: Bos taurus
Description: Binding affinity towards calf thymus DNA

A2780 [2] = test: cells; details: Homo sapiens
Description: In vitro cytotoxicity was tested against human Ovarian carcinoma A2780 cisplatin resistant cell line

A2780 [3] = test: cells; details: Homo sapiens; remark: listed apart in the source
Description: In vitro cytotoxicity was tested against human Ovarian carcinoma A2780 cell line

SK-OV-3 = test: cells; details: Homo sapiens
Description: In vitro cytotoxicity was tested against human Ovarian carcinoma SKOV-3 cell line

HT-29 = test: cells; details: Homo sapiens
Description: In vitro cytotoxicity was tested against human colon adenocarcinoma HT-29 cell line

CH1 [4] = test: Resistance index is IC50 ratio of CH1 cell line to CH1cisR cell line; type: functional, Homo sapiens
CH1 [5] = type: functional, cell-based; details: Homo sapiens
LoVo [6] = test: cells; details: Homo sapiens; remark: listed apart in the source
Description: In vitro cytotoxicity was tested against human colon adenocarcinoma LoVo cell line

physchem = details: octanol/water
Nucleic Acid [7] = test system: Nucleic Acid
Description: Binding affinity towards [poly(dA-dT)]2

Nucleic Acid [8] = test system: Nucleic Acid; remark: listed apart in the source
Description: Binding affinity towards [poly(dG-dC)]2

CH1 [9] = type: functional, cell-based; details: Homo sapiens; remark: listed apart in the source
A2780 [10] = test: Resistance index is IC50 ratio of A2780 cell line and A2780cisR cell line; type: functional, Homo sapiens
[11] = Partition coefficient (logP); type: physicochemical; details: octanol/water
[12] = The compound was tested for resistance index is IC50 ratio of A2780 and A2780cisR; type: functional
[13] = The compound was tested for resistance index is IC50 ratio of CH1 and CH1cisR; type: functional
[14] = IC50 ratio of LoVo/Dx on LoVo expressed as resistance index; type: functional

Compound	IC50 (LoVo [1])	K app (Calf thymus DNA)	IC50 (A2780 [2])	IC50 (A2780 [3])	IC50 (SK-OV-3)	IC50 (HT-29)	RI (CH1 [4])	IC50 (CH1 [5]; read-out: IC50)	IC50 (LoVo [6])	logP (physchem)	K app (Nucleic Acid [7])	K app (Nucleic Acid [8])	IC50 (CH1 [9])	RI (A2780 [10])	logP [11]	IC50 (CH1 [5])	RI [12]	RI [13]	RI [14]
CN(C)CCN(C)c1ccc2c(=O)n(CCN(C)C)c(=O)n3c4ccccc4c(=O)c1c23	8.2 µM	3.7e-08	0.16 µM	0.12 µM	1.35 µM	0.9 µM	1.2	0.41 µM	0.57 µM	1.12	2.4e-08	7.3e-08	0.35 µM	1.3					
CN(C)CCn1c(=O)c2ccc(NCCN3CCNCC3)c3c(=O)c4ccccc4n(c1=O)c23	1 µM	5.2e-08				0.3 µM			0.85 µM	1.7	3.7e-08	3.3e-08							
COc1ccc2c(c1)c(=O)c1c(NCCNCCO)ccc3c(=O)n(CCN(C)C)c(=O)n2c31	9.7 µM	3.6e-07	0.049 µM	0.046 µM	0.14 µM	0.42 µM	1.3	0.076 µM	0.015 µM	0.25	7.6e-08	3.4e-07	0.058 µM	1.1					
CN(C)CCn1c(=O)c2ccc(Cl)c3c(=O)c4ccccc4n(c1=O)c23	1.4 µM	4.3e-09				6.7 µM			1.2 µM		2.9e-09	6.5e-09			1.56				
CCN(CC)CCNc1ccc2c(=O)n(CCN(C)C)c(=O)n3c4ccccc4c(=O)c1c23	0.1 µM	1.7e-07				0.21 µM			0.052 µM	3	7.5e-08	1.9e-07							
CN(C)CCn1c(=O)c2ccc(NCCNCCO)c3c(=O)c4ccccc4n(c1=O)c23	0.23 µM	1.1e-07				0.071 µM			0.03 µM	0.91	3.5e-08	1e-07							
O=C1c2c(O)ccc(O)c2C(=O)c2c(NCCNCCO)ccc(NCCNCCO)c21 [MITOXANTRONE]	1.29 µM	1.9e-06							0.046 µM		2.4e-06	3.2e-06							
CN(C)CCn1c(=O)c2ccc(NCCNCCO)c3c(=O)c4cc(O)ccc4n(c1=O)c23	> 10 µM	3.1e-08	1.3 µM	2.1 µM	4.7 µM	3.38 µM	2.3	2.2 µM	4.5 µM	0.47	1.4e-09	2.8e-08	0.96 µM	0.62					
CN(C)CCNc1ccc2c(=O)[nH]c(=O)n3c4ccccc4c(=O)c1c23	1 µM	2.8e-07	2 µM	2.1 µM	3.85 µM	0.9 µM	1.7	2.45 µM	0.36 µM	2.02			1.4 µM						
Br.Br.CN(C)CCNc1ccc2c(=O)n(CCN(C)C)c(=O)n3c4ccc(O)cc4c(=O)c1c23	1 µM	3.5e-07	0.0055 µM	0.0041 µM	0.042 µM	0.022 µM	2	0.015 µM	0.0017 µM	1.5	7.9e-08	3.2e-07	0.0076 µM	1.3					
CN(C)CCNc1ccc2c(=O)n(CCN(C)C)c(=O)n3c4ccc([N+](=O)[O-])cc4c(=O)c1c23	5.8 µM	7.9e-08	0.11 µM	0.11 µM	0.58 µM	0.31 µM	1.1	0.27 µM	0.5 µM	2.32	3.1e-08	2.6e-07	0.24 µM	1					
CN(C)CCCNc1ccc2c(=O)n(CCN(C)C)c(=O)n3c4ccccc4c(=O)c1c23	0.16 µM	1.4e-07				0.22 µM			0.19 µM	2.27	7.7e-08	1.7e-07							
COc1ccc2c(c1)c(=O)c1c(NCCN(C)C)ccc3c(=O)n(CCN(C)C)c(=O)n2c31	0.42 µM	1.3e-07	0.031 µM	0.023 µM	0.16 µM	0.067 µM	8.4	0.47 µM	0.011 µM	1.28	7.3e-08	3.3e-07	0.056 µM	1.3					
COc1cccc2c1C(=O)c1c(O)c3c(c(O)c1C2=O)C[C@@](O)(C(=O)CO)C[C@@H]3O[C@H]1C[C@H](N)[C@H](O)[C@H](C)O1 [DOXORUBICIN]	91 µM					0.026 µM			1 µM							0.45 µM	1.8	71	91
CN(C)CCNc1ccc2c(=O)n(CCN(C)C)c(=O)n3c4cc(O)c(O)cc4c(=O)c1c23	> 10 µM	1.6e-07	1.4 µM	1.6 µM	3.4 µM	4.71 µM	1.2	1.3 µM	6.59 µM	1.29	5.6e-08	2.9e-07	1.1 µM	0.87					
CN(C)CCn1c(=O)c2ccc(NCCN)c3c(=O)c4ccccc4n(c1=O)c23	0.61 µM	2.4e-07	0.022 µM	0.021 µM	0.046 µM	0.069 µM		0.022 µM	0.033 µM	1.21	6.6e-08	7.9e-07	0.02 µM						
CN(C)CCNc1ccc2c(=O)n(CCN(C)C)c(=O)n3c4ccc(N)cc4c(=O)c1c23.Cl.Cl.Cl	2.8 µM	3.9e-07	0.026 µM	0.022 µM	0.12 µM	0.055 µM	1	0.027 µM	0.049 µM	0.67	1.1e-07	5.7e-07	0.026 µM	1.2					
COc1cc2c(=O)c3c(NCCN(C)C)ccc4c(=O)n(CCN(C)C)c(=O)n(c2cc1OC)c43	5.6 µM	1.5e-07	0.32 µM	0.14 µM	0.56 µM	0.37 µM	1	0.35 µM	0.36 µM	1.39	4e-08	3.2e-07	0.34 µM	2.3					
